Data taken from patent US10815238B2, “Antimicrobial compounds and methods of making and using the same” (BIOVERSYS AG, priority 2013, dated 2020).

What was measured:
[1] = system: Staphylococcus aureus (S. aureus) 11540 strain; assay: Standard microdilution assay, MIC against S. aureus 11540; type: cell-based; settings: S. aureus 11540 strain, standard microdilution assay, cutoff 16 micrograms/mL, read-out: MIC S. aureus
How it was run: (§1)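 MIC determined by broth microdilution following CLSI protocols, with reference strains run in parallel for quality control. Activity scored +/− at a cutoff of 16 micrograms/mL.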

[2] = system: Eschericia coli (E. coli) strain ATCC25922; assay: Standard microdilution assay, MIC against E. coli ATCC25922; type: cell-based; settings: Escherichia coli; E. coli strain ATCC25922, standard microdilution assay; cutoff 16 micrograms/mL; read-out: MIC E. Coli
How it was run: as §1

**Q.** How did the MIC [1] turn out when C[C@H](N)CCCc1cc(Cl)c(F)c(-c2cc3cn(-c4ccc(CN[C@H](CCNC(=N)N)CNc5nccs5)cc4)c(=O)nc3[nH]2)c1 [Compound 491] was run?
**A.** < 16 µg/mL

**Q.** What about the MIC [2] of the same compound?
**A.** < 16 µg/mL

**Q.** With N=C(N)NCC[C@@H]1CCC[C@@H](c2ccc(-n3cc4cc(-c5ccc(S(=O)(=O)NC6CCNCC6)cc5)[nH]c4nc3=O)cc2)N1 [Compound 492] as the compound, how does the MIC [1] read?
**A.** < 16 µg/mL

**Q.** What about the MIC [2] of the same compound?
**A.** < 16 µg/mL

**Q.** Which MIC [1] does the source give for NCC[C@@H]1CCC[C@@H](c2ccc(-n3cc4cc(-c5ccc(S(=O)(=O)NC6CCNCC6)cc5)[nH]c4nc3=O)cc2)N1 [Compound 493] here?
**A.** < 16 µg/mL

**Q.** And the MIC [2]?
**A.** < 16 µg/mL

**Q.** Which results are given for N=C(N)NCC[C@@H]1CCC[C@@H](c2ccc(-n3cc4cc(-c5ccc(S(=O)(=O)NC6CCN(C(=N)N)CC6)cc5)[nH]c4nc3=O)cc2)N1 [Compound 494]?
**A.** MIC [1]: < 16 µg/mL; MIC [2]: < 16 µg/mL

**Q.** What does the source list for C[C@H](N)CCCc1cc(Cl)c(F)c(-c2cc3cn(-c4ccc([C@@H]5CCC[C@@H](Cc6nnc[nH]6)N5)cc4)c(=O)nc3[nH]2)c1 [Compound 496]?
**A.** MIC [1]: > 16 µg/mL; MIC [2]: > 16 µg/mL

**Q.** Which results are given for Cc1noc(C[C@@H]2CCC[C@@H](c3ccc(-n4cc5cc(-c6cc(CCC[C@H](C)N)cc(Cl)c6F)[nH]c5nc4=O)cc3)N2)n1 [Compound 497]?
**A.** MIC [1]: < 16 µg/mL; MIC [2]: > 16 µg/mL

**Q.** With C[C@H](N)CCCc1cc(Cl)c(F)c(-c2cc3cn(-c4ccc([C@@H]5CCC[C@@H](CC#N)N5)cc4)c(=O)nc3[nH]2)c1 [Compound 498] as the compound, how does the MIC [1] read?
**A.** < 16 µg/mL

**Q.** What about the MIC [2] of the same compound?
**A.** > 16 µg/mL

**Q.** C[C@H](N)CCCc1cc(Cl)c(F)c(-c2cc3cn(-c4ccc(CN[C@H](CCNC(=N)N)Cn5ccnn5)cc4)c(=O)nc3[nH]2)c1 [Compound 499] was tested. Which MIC [1] did it give?
**A.** < 16 µg/mL

**Q.** And the MIC [2]?
**A.** < 16 µg/mL

**Q.** Which MIC [1] does the source give for C[C@H](N)CCCc1cc(Cl)c(F)c(-c2cc3cn(-c4ccc(CN[C@H](CCN)Cn5ccnn5)cc4)c(=O)nc3[nH]2)c1 [Compound 500] here?
**A.** < 16 µg/mL

**Q.** And the MIC [2]?
**A.** < 16 µg/mL

**Q.** What does the source list for CC(=O)NCC[C@@H]1CCC[C@@H](c2ccc(-n3cc4cc(-c5cc(CCC[C@H](C)N)cc(Cl)c5F)[nH]c4nc3=O)cc2)N1 [Compound 501]?
**A.** MIC [1]: > 16 µg/mL; MIC [2]: > 16 µg/mL

**Q.** For N=C(NC1CC1)c1ccc(-n2cc3cc(-c4ccc(S(=O)(=O)NC5CCNCC5)cc4)[nH]c3nc2=O)cc1 [Compound 502], which MIC [1] is on record?
**A.** < 16 µg/mL

**Q.** And the MIC [2]?
**A.** < 16 µg/mL

**Q.** Which results are given for C[C@H](N)CCCc1cc(Cl)c(F)c(-c2cc3cn(-c4ccc(C(=N)NC5CC5)cc4)c(=O)nc3[nH]2)c1 [Compound 503]?
**A.** MIC [1]: < 16 µg/mL; MIC [2]: < 16 µg/mL

**Q.** With N=C(NC1CCCC1)c1ccc(-n2cc3cc(-c4ccc(S(=O)(=O)NC5CCNCC5)cc4)[nH]c3nc2=O)cc1 [Compound 504] as the compound, how does the MIC [1] read?
**A.** > 16 µg/mL

**Q.** What about the MIC [2] of the same compound?
**A.** > 16 µg/mL

**Q.** For C[C@H](N)CCCc1cc(Cl)c(F)c(-c2cc3cn(-c4ccc(C(=N)NC5CCCC5)cc4)c(=O)nc3[nH]2)c1 [Compound 505], which MIC [1] is on record?
**A.** < 16 µg/mL

**Q.** What about the MIC [2] of the same compound?
**A.** < 16 µg/mL

**Q.** How did the MIC [1] turn out when CC#C[C@H](CCNC(=N)N)NCc1ccc(-n2cc3cc(-c4cc(CCC[C@H](C)N)cc(Cl)c4F)[nH]c3nc2=O)cc1 [Compound 506] was run?
**A.** < 16 µg/mL

**Q.** What about the MIC [2] of the same compound?
**A.** < 16 µg/mL

**Q.** Which results are given for CC#C[C@@H](CCNC(=N)N)NCc1ccc(-n2cc3cc(-c4cc(CCC[C@H](C)N)cc(Cl)c4F)[nH]c3nc2=O)cc1 [Compound 507]?
**A.** MIC [1]: < 16 µg/mL; MIC [2]: < 16 µg/mL

**Q.** What does the source list for C[C@H](N)CCCc1cc(Cl)c(F)c(-c2cc3cn(-c4ccc([C@@H]5CCC[C@@H](CCc6ncc[nH]6)N5)cc4)c(=O)nc3[nH]2)c1 [Compound 508]?
**A.** MIC [1]: < 16 µg/mL; MIC [2]: < 16 µg/mL

**Q.** How did the MIC [1] turn out when C[C@H](N)CCCc1cc(Cl)c(F)c(-c2cc3cn(-c4ccc([C@@H]5CCC[C@@H](Cc6nn[nH]n6)N5)cc4)c(=O)nc3[nH]2)c1 [Compound 509] was run?
**A.** > 16 µg/mL

**Q.** And the MIC [2]?
**A.** > 16 µg/mL

**Q.** What does the source list for C[C@H](N)CCCc1cc(Cl)c(F)c(-c2cc3cn(-c4ccc([C@@H]5CCC[C@@H](CCNC(N)=O)N5)cc4)c(=O)nc3[nH]2)c1 [Compound 510]?
**A.** MIC [1]: > 16 µg/mL; MIC [2]: > 16 µg/mL

**Q.** Which results are given for C[C@H](N)CCCc1cc(Cl)c(F)c(-c2cc3cn(-c4ccc([C@@H]5CCC[C@@H](CCC(N)=O)N5)cc4)c(=O)nc3[nH]2)c1 [Compound 511]?
**A.** MIC [1]: < 16 µg/mL; MIC [2]: < 16 µg/mL

**Q.** C[C@H](N)CCCc1cc(Cl)c(F)c(-c2cc3cn(-c4ccc(C(=N)NCC[C@H](C)N)cc4)c(=O)nc3[nH]2)c1 [Compound 512] was tested. Which MIC [1] did it give?
**A.** < 16 µg/mL

**Q.** What about the MIC [2] of the same compound?
**A.** < 16 µg/mL

**Q.** With CNC(=O)CC[C@@H]1CCC[C@@H](c2ccc(-n3cc4cc(-c5cc(CCC[C@H](C)N)cc(Cl)c5F)[nH]c4nc3=O)cc2)N1 [Compound 513] as the compound, how does the MIC [1] read?
**A.** > 16 µg/mL

**Q.** And the MIC [2]?
**A.** > 16 µg/mL

**Q.** With C[C@H](N)CCCc1cc(Cl)c(F)c(-c2cc3cn(-c4ccc([C@@H]5CCC[C@@H](CCC(=O)O)N5)cc4)c(=O)nc3[nH]2)c1 [Compound 514] as the compound, how does the MIC [1] read?
**A.** > 16 µg/mL

**Q.** And the MIC [2]?
**A.** > 16 µg/mL

**Q.** Which results are given for C[C@H](N)CCCc1cc(Cl)c(F)c(-c2cc3cn(-c4ccc([C@@H]5CCC[C@@H](CCNC=N)N5)cc4)c(=O)nc3[nH]2)c1 [Compound 515]?
**A.** MIC [1]: < 16 µg/mL; MIC [2]: < 16 µg/mL

**Q.** Which results are given for CC(=N)NCC[C@@H]1CCC[C@@H](c2ccc(-n3cc4cc(-c5cc(CCC[C@H](C)N)cc(Cl)c5F)[nH]c4nc3=O)cc2)N1 [Compound 516]?
**A.** MIC [1]: < 16 µg/mL; MIC [2]: < 16 µg/mL

**Q.** How did the MIC [1] turn out when CN/C(=C/[N+](=O)[O-])NCC[C@@H]1CCC[C@@H](c2ccc(-n3cc4cc(-c5cc(CCC[C@H](C)N)cc(Cl)c5F)[nH]c4nc3=O)cc2)N1 [Compound 517] was run?
**A.** < 16 µg/mL

**Q.** And the MIC [2]?
**A.** < 16 µg/mL

**Q.** How did the MIC [1] turn out when Cc1cc(OC[C@@H](CCNC(=N)N)NCc2ccc(-n3cc4cc(-c5cc(CCC[C@H](C)N)cc(Cl)c5F)[nH]c4nc3=O)cc2)no1 [Compound 518] was run?
**A.** < 16 µg/mL

**Q.** What about the MIC [2] of the same compound?
**A.** < 16 µg/mL

**Q.** Which MIC [1] does the source give for C[C@H](N)CCCc1cc(Cl)c(F)c(-c2cc3cn(-c4ccc(CN[C@@H](CCNC(=N)N)CCc5nccs5)cc4)c(=O)nc3[nH]2)c1 [Compound 519] here?
**A.** < 16 µg/mL

**Q.** And the MIC [2]?
**A.** < 16 µg/mL

**Q.** Which MIC [1] does the source give for C[C@H](N)CCCc1cccc(-c2cc3cn(-c4ccc(CNCCCNC(=N)N)cc4)c(=O)nc3[nH]2)c1 [Compound 520] here?
**A.** < 16 µg/mL

**Q.** What about the MIC [2] of the same compound?
**A.** < 16 µg/mL

**Q.** Which results are given for C[C@H](N)CCCc1cccc(-c2cc3cn(-c4ccc([C@H](C)NCCCNC(=N)N)cc4)c(=O)nc3[nH]2)c1 [Compound 521]?
**A.** MIC [1]: < 16 µg/mL; MIC [2]: < 16 µg/mL

**Q.** C[C@H](N)CCCc1cc(Cl)c(F)c(-c2cc3cn(-c4ccc([C@@H]5CCO[C@@H](CCCN)C5)cc4)c(=O)nc3[nH]2)c1 [Compound 522] was tested. Which MIC [1] did it give?
**A.** < 16 µg/mL

**Q.** What about the MIC [2] of the same compound?
**A.** < 16 µg/mL

**Q.** Which MIC [1] does the source give for C[C@H](N)CCCc1cc(Cl)c(F)c(-c2cc3cn(-c4ccc([C@@H]5CCO[C@@H](CCCNC(=N)N)C5)cc4)c(=O)nc3[nH]2)c1 [Compound 523] here?
**A.** < 16 µg/mL

**Q.** And the MIC [2]?
**A.** < 16 µg/mL

**Q.** How did the MIC [1] turn out when C[C@H](N)CCCc1cc(Cl)c(F)c(-c2cc3cn(-c4ccc(CN[C@H](CCNC(=N)N)CNc5ncccn5)cc4)c(=O)nc3[nH]2)c1 [Compound 524] was run?
**A.** < 16 µg/mL

**Q.** And the MIC [2]?
**A.** < 16 µg/mL

**Q.** What does the source list for C[C@H](N)CCCc1cc(Cl)c(F)c(-c2cc3cn(-c4ccc([C@@H]5CCO[C@@H](CCN)C5)cc4)c(=O)nc3[nH]2)c1 [Compound 525]?
**A.** MIC [1]: < 16 µg/mL; MIC [2]: < 16 µg/mL

**Q.** What does the source list for C[C@H](N)CCCc1cc(Cl)c(F)c(-c2cc3cn(-c4ccc([C@@H]5CCO[C@@H](CCNC(=N)N)C5)cc4)c(=O)nc3[nH]2)c1 [Compound 526]?
**A.** MIC [1]: < 16 µg/mL; MIC [2]: < 16 µg/mL

**Q.** For C[C@H](N)CCCc1cc(Cl)c(F)c(-c2cc3cn(-c4ccc([C@@H]5CCC[C@@H](CCNC(=N)N)N5C)cc4)c(=O)nc3[nH]2)c1 [Compound 527], which MIC [1] is on record?
**A.** < 16 µg/mL

**Q.** And the MIC [2]?
**A.** < 16 µg/mL
